The test system of series [1] is HBV. The series can be described thus: HepAD38 antiviral assay: reduction of viral product accumulation (virion DNA by qPCR; HBsAg/HBeAg ELISA). The following applies: Hepatitis B virus, 120 h; HepAD38 cells; 50% reduction of viral product accumulation relative to no drug controls; harvest five days after compound addition. The series is classed as cell-based, hepatitis B virus (HBV). The procedure: Methods: HepAD38 cells are maintained as previously reported (Ladner et al, Antimicrob. Agents Chemother. 1997, […], 1715). Briefly, cells are passaged upon attaining confluency in DMEM/F12 media in the presence of 10% FBS, Penn/Strep, 250 μg/mL G418, and 1 μg/ml tetracycline. Novel compounds are screened by first washing cells three times with PBS to remove tetracycline, and plating in 96 well plates at 35,000 cells/well. Compounds dissolved in DMSO are then diluted 1:200 into wells containing cells. Five days after compound addition, material is harvested for analysis. For an extended 8 day analysis, cells are plated and treated as described above, but media and compound are refreshed on d2 and d5 post initial treatment.
On harvest day, virion DNA is obtained by lysing with Sidestep Lysis and Stabilization Buffer and then quantified via quantitative real time PCR. Commercially available ELISA kits are used to quantitate the viral proteins HBsAg (Alpco) or HbeAg (US Biological) by following the manufacturer's recommended protocol after diluting samples to match the linear range of their respective assays. Irrespective of readout, compound concentrations that reduce viral product accumulation in the cell lysates or supernatants by 50% relative to no drug controls (EC50) are reported; EC50 ranges are as follows: A<0.1 μM; B 0.1-1 μM; C>1 μM.
(Quantitative PCR measures a nucleic acid by following its amplification.)

The nature of series [2]: Compound toxicity, ATPLite total ATP levels. The series is classed as cell-based. The following applies: human, HepG2 cells, 50% reduction of total ATP levels (ATPLite) three days after compound addition. The procedure: Compound toxicity is evaluated by seeding cells at 15,000 cells/well and treating with compound as described above.
On the technique in general: Cellular ATP, detected with luciferase, serves as a proxy for viable cell number.

pEC50: −log10 of the molar value. Some results are limits rather than exact numbers.

The values that follow come from patent publication US10640511B2, “Hepatitis B antiviral agents” (ENANTA PHARMACEUTICALS, INC., priority 2016, dated 2020).

Turning to `Cn1ccc(C2=C3CC(NC(=O)OC(C)(C)C)CN3C(c3nccs3)=N[C@H]2c2ccc(F)cc2Cl)n1` (some centres unmarked) [Example 1], in series [1], the pEC50 was above 7.00. For the same compound, the CC50 at 3 days in series [2] (class symbols) was below 10 µM. For `Cn1ccc(C2=C3CC(NS(=O)(=O)C4CC4)CN3C(c3nccs3)=N[C@H]2c2ccc(F)cc2Cl)n1` (some centres unmarked) [Example 2], in that order: above 7.00 and above 25 µM. Consider `Cn1ccc(C2=C3C[C@H](NS(=O)(=O)C4CC4)CN3C(c3nccs3)=N[C@H]2c2ccc(F)cc2Cl)n1` [Example 3], for which the pEC50 in series [1] was above 7.00. Take `Cn1ccc(C2=C3C[C@H](NS(=O)(=O)C4CC4)CN3C(c3nccs3)=NC2(C)c2ccc(F)cc2)n1` (some centres unmarked) [Example 4]: in series [1], the pEC50 is above 7.00.

Turning to `Cn1ccc(C2=C3C[C@H](NS(=O)(=O)C4CC4)CN3C(c3nccs3)=N[C@@]2(C)c2ccc(F)cc2)n1` [Example 5], in series [1], the pEC50 is above 7.00.

For the compound `Cn1ccc(C2=C3C[C@H](NS(C)(=O)=O)CN3C(c3nccs3)=N[C@H]2c2ccc(F)cc2Cl)n1` [Example 6], the pEC50 in series [1] is above 7.00. As for `CCS(=O)(=O)N[C@H]1CC2=C(c3ccn(C)n3)[C@H](c3ccc(F)cc3Cl)N=C(c3nccs3)N2C1` [Example 7], in series [1], the pEC50 is above 7.00. In series [1], `CC(C)S(=O)(=O)N[C@H]1CC2=C(c3ccn(C)n3)[C@H](c3ccc(F)cc3Cl)N=C(c3nccs3)N2C1` [Example 8] gave a pEC50 above 7.00. Still for that read-out and setting: to `Cn1ccc(C2=C3C[C@H](NS(=O)(=O)Cc4ccccc4)CN3C(c3nccs3)=N[C@H]2c2ccc(F)cc2Cl)n1` [Example 9] belongs above 7.00; to `Cn1ccc(C2=C3C[C@H](NS(=O)(=O)C4(C)CC4)CN3C(c3nccs3)=N[C@H]2c2ccc(F)cc2Cl)n1` [Example 10], above 7.00. `Cn1ccc(C2=C3C[C@H](NS(=O)(=O)C4CCC4)CN3C(c3nccs3)=N[C@H]2c2ccc(F)cc2Cl)n1` [Example 11]: the pEC50 in series [1] is above 7.00. On to `Cn1ccc(C2=C3C[C@H](NS(=O)(=O)C4CCCC4)CN3C(c3nccs3)=N[C@H]2c2ccc(F)cc2Cl)n1` [Example 12], for which, in series [1], the pEC50 is above 7.00.

`Cn1ccc(C2=C3C[C@H](NS(=O)(=O)C4CCCCC4)CN3C(c3nccs3)=N[C@H]2c2ccc(F)cc2Cl)n1` [Example 13]: the pEC50 in series [1] was above 7.00. Regarding `Cn1ccc(C2=C3C[C@H](NS(=O)(=O)c4ccccc4)CN3C(c3nccs3)=N[C@H]2c2ccc(F)cc2Cl)n1` [Example 14], the pEC50 in series [1] was above 7.00. Same read-out and setting: the result for `O=S(=O)(N[C@H]1CC2=C(c3ncco3)[C@H](c3ccc(F)cc3Cl)N=C(c3nccs3)N2C1)C1CC1` [Example 15] reads above 7.00; that for `Cn1ccc(C2=C3C[C@H](NS(=O)(=O)C4CC4)CN3C(c3nccs3)=N[C@@]2(C)c2ccc(F)c(F)c2)n1` [Example 16], above 7.00.

In turn, `[2H]C([2H])([2H])n1ccc(C2=C3C[C@H](NS(=O)(=O)C4CC4)CN3C(c3nccs3)=N[C@H]2c2ccc(F)cc2Cl)n1` [Example 17] had a pEC50 in series [1] above 7.00. This compound returned a CC50 at 3 days in series [2] (class symbols) above 25 µM. The like results for `Cc1cnc(C2=C3C[C@H](NS(=O)(=O)C4CC4)CN3C(c3nccs3)=N[C@H]2c2ccc(F)cc2Cl)o1` [Example 18] were, in that order, above 7.00 and above 25 µM. `Cn1cc(C2=C3C[C@H](NS(=O)(=O)C4CC4)CN3C(c3nccs3)=N[C@H]2c2ccc(F)cc2Cl)cn1` [Example 19] showed a pEC50 in series [1] above 7.00. Turning to `Cn1ccc(C2=C3C[C@H](NS(N)(=O)=O)CN3C(c3nccs3)=N[C@H]2c2ccc(F)cc2Cl)n1` [Example 20], the pEC50 in series [1] is above 7.00. For the same compound, in series [2] (class symbols), the CC50 at 3 days was above 25 µM. On to `Cc1coc(C2=C3C[C@H](NS(=O)(=O)C4CC4)CN3C(c3nccs3)=N[C@H]2c2ccc(F)cc2Cl)n1` [Example 21], for which the pEC50 in series [1] was above 7.00. As for `CCn1ccc(C2=C3C[C@H](NS(=O)(=O)C4CC4)CN3C(c3nccs3)=N[C@H]2c2ccc(F)cc2Cl)n1` [Example 22], the pEC50 in series [1] was above 7.00. In series [2] (numeric bound), this compound displayed a CC50 at 3 days above 6 µM.

In turn, `O=S(=O)(N[C@H]1CC2=C(c3ccccn3)[C@H](c3ccc(F)cc3Cl)N=C(c3nccs3)N2C1)C1CC1` [Example 23] had a pEC50 in series [1] of 6.00 to 7.00.

What is called pEC50 is the EC50 on a negative log10 scale, so that one unit is a factor of ten. Read a high pEC50 as a small EC50. One may read the CC50 as the concentration that lowers cell viability or growth by half.
